According to US6596772B1, “Phosphate mimics and methods of treatment using phosphatase inhibitors” (Sugen, Inc., priority 1999, dated 2003):

How the values were obtained:
Type in all cases: biochemical
PTP MU = biological target: T1, PTP MU (Homo sapiens, UniProt P28827); experiment: PTP IC50 assay, pNPP or FDP as substrate; settings: pNPP or FDP as substrate, 25° C.; read-out: PTP IC50 Mu
T1 construct: made in house; host or cells: E. coli BL-21 (pGEX 6P-1)
Protocol: (§1) The following in vitro assay procedure is preferred to determine the level of activity and effect of the different compounds of the present invention on one or more of the PTPs. Similar assays can be designed along the same lines for any PTP using techniques well known in the art.
(§2) The catalytic assays described herein are performed in a 96-well format. The general procedure begins with the determination of PTP optimal pH using a three-component buffer system that minimizes ionic strength variations across a wide range of buffer pH. Next, the Michaelis-Menten constant, or Km, is determined for each specific substrate-PTP system. This Km value is subsequently used as the substrate reaction concentration for compound screening. Finally, the test PTP is exposed to varying concentrations of compound for fifteen minutes and allowed to react with substrate for ten minutes. The results are plotted as percent inhibition versus compound concentration and the IC50 interpolated from the plot.
(§3) All assays were performed using pNPP or FDP as substrate. The optimum pH was determined for each PTP used.
(§4) PTPase activity was assayed at 25° C. in a 100-μl reaction mixture containing an appropriate concentration of pNPP or FDP as substrate. The reaction was initiated by addition of the PTP and quenched after 10 min by addition of 50 μl of IN NaOH. The non-enzymatic hydrolysis of the substrate was corrected by measuring the control without the addition of the enzyme. The amount of p-nitrophenol produced was determined from the absorbance at 410 nm. To determine the kinetic parameter, Km, the initial velocities were measured at various substrate concentrations and the data were fitted to the Michaelis equation where velocity=(Vmax*[S])/(Km+[S]), and [S]=substrate reaction concentration.
(§5) The effect of the compounds on PTP was evaluated at 25° C. using pNPP or FDP as substrate. PTP was pre-incubated for fifteen minutes with various concentrations of compound. Substrate was then added at a fixed concentration (usually equal to the Km previously calculated). After 10 minutes, NaOH was added to stop the reaction. The hydrolysis of pNPP was followed at 410 nm on the Biotek Powerwave 200 microplate scanning spectrophotometer. The percent inhibition was calculated as follows: Percent Inhibition=[(control signal−compound signal)/control signal] ×100%. The IC50 was then determined by interpolation of a percent inhibition versus compound concentration plot.
(§6) Plasmids designed for bacterial GST-PTP fusion protein expression were derived by insertion of PCR-generated human PTP fragments into pGEX vectors (Pharmacia Biotech). Several of these constructs were then used to subclone phosphatases into pFastBac-1for expression in Sf-9 insect cells. Oligonucleotides used for the initial amplification of PTP genes are shown below. The cDNAs were prepared using the Gilbo BRL superscript preamplification system on RNAs purchased from Clontech.
The PTP Mu cDNA was amplified from a human lung cDNA library (Clontech) using the following oligonucleotides; 5′oligo: 5′-[…]-3′ (SEQ ID NO: 18) 3′oligo: 5′-[…]-3′ (SEQ ID NO: 19) It was subsequently ligated into the Eco RI/Xho I sites of pGEX 6P-1.

PTP ZETA = biological target: T2, PTP ZETA (Homo sapiens, UniProt P23471); experiment: PTP IC50 assay, pNPP or FDP as substrate; settings: 25° C.
T2 construct: made in house; host or cells: E. coli BL-21 (pGEX 6P-1)
T2 sequence (P23471 1667-2028 limits assumed): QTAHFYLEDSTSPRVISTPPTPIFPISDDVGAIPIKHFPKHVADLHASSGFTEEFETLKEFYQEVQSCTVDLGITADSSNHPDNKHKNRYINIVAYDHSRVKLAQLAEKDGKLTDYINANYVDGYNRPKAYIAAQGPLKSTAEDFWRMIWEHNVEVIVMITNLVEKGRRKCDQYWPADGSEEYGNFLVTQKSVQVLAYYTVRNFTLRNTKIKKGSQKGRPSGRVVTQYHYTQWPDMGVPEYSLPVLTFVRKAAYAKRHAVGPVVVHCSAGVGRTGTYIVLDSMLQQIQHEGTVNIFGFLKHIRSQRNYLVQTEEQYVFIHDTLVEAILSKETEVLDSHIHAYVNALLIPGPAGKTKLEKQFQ
Protocol: as §1, §2, §3, §4, §5, §6
The PTP Zeta cDNA was amplified from human placenta single strand cDNA (Clontech RNA) using the following oligonucleotides 5′oligo: 5′-[…]-3′ (SEQ ID NO: 10) 3′oligo: 5′-[…]-3′ (SEQ ID NO: 11) and subsequently ligated into pGEX 6P-1 Eco RI/Xho I sites.

PTP ALPHA = biological target: T3, PTP ALPHA (Homo sapiens, UniProt P18433); experiment: PTP IC50 assay, pNPP or FDP as substrate; settings: 25° C.
T3 construct: RTPα intracellular domain construct was obtained; made in house; host or cells: E. coli BL-21 (pGEX 3X)
Protocol: as §1, §2, §3, §4, §5, §6
RTPα intracellular domain construct was obtained, Schlessinger et al., U.S. Pat. No. 5,888,794, the contents of which are hereby incorporated in their entirety into the present application. The RTPα fragment was cloned into pGEX 3× using the following procedure. The portion from EclX I/Xma III/Eag I (N-terminus blunted by Klenow) to Eco RV was cloned into the Sma I site. The EclX I site is approximately 15 residues downstream of the transmembrane domain.

PTP PEST = biological target: T4, PTP PEST (Homo sapiens, UniProt Q05209); experiment: PTP IC50 assay, pNPP or FDP as substrate; settings: 25° C.
T4 construct: made in house; host or cells: E. coli BL-21 (pGEX 6P-1)
T4 sequence (Q05209 1-343 limits assumed): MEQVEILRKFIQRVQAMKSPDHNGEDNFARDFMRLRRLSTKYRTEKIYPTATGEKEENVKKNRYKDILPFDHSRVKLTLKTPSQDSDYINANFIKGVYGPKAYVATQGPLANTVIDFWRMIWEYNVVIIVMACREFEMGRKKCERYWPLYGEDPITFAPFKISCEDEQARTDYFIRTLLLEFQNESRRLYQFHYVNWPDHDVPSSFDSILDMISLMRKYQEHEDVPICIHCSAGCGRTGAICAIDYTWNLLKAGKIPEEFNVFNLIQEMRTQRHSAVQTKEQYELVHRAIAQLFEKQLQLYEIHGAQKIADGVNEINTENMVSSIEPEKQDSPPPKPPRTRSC
Protocol: as §1, §2, §3, §4, §5, §6
The PTP PEST CDNA was amplified from an HeLa cDNA library (Clonetech RNA) using the following oligonucleotides: 5′oligo: 5′-[…]-3′ (SEQ ID NO: 14) 3′oligo: 5′-[…]-3′ (SEQ ID NO: 15) It was subsequently ligated into the Eco RI/Xho I sites of pGEX 6P-1.

PTP DEP1 = biological target: T5, PTP DEP1 (Homo sapiens, UniProt Q12913); experiment: PTP IC50 assay, pNPP or FDP as substrate; settings: 25° C.
T5 construct: GST-fusion proteins encompassing the entire cytoplasmic domain was done by PCR; made in house; host or cells: E. coli BL-21 (pGEX 2T)
T5 sequence (Q12913 997-1337 limits assumed): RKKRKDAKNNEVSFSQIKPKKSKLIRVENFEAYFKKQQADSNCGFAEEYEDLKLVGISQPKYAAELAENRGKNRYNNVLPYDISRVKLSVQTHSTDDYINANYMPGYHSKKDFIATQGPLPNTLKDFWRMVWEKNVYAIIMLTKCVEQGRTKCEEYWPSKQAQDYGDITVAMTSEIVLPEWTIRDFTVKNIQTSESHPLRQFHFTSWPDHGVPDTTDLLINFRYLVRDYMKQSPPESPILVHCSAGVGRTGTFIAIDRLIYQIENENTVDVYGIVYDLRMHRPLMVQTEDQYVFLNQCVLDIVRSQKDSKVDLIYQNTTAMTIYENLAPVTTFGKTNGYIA
Protocol: as §1, §2, §3, §4, §5, §6
The full length DEP1 cDNA was isolated from a human mammary cDNA library (Clontech). The construction of GST-fusion proteins encompassing the entire cytoplasmic domain was done by PCR using the following oligos; 5′oligo: 5′-[…]-3′ (SEQ ID NO: 20) 3′oligo: 5′-[…]-3′ (SEQ ID NO: 21) It was subsequently ligated into the Eco RI/Bam H1 sites of pGEX 2T.

PTP 1B = biological target: T6, PTP 1B (Homo sapiens, UniProt P18031); experiment: PTP IC50 assay, fluorescent substrate DiFMUP; settings: DiFMUP as substrate, 25° C.; read-out: PTP IC50 1B
T6 construct: made in house; host or cells: Sf-9 insect cells (pFastBac-G2T)
T6 sequence (P18031 1-435): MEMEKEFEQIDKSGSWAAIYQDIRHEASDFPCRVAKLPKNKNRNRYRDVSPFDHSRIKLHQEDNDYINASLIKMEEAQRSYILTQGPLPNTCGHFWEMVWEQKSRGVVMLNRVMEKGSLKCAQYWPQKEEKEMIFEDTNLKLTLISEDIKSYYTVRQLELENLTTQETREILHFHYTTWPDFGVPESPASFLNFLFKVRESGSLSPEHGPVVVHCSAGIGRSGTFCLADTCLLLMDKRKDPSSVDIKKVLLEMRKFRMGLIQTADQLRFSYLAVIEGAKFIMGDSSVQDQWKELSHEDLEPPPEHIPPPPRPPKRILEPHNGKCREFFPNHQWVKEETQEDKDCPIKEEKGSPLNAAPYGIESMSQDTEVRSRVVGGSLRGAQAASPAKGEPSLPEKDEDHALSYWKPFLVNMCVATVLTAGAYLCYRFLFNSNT

PTP EPSILON = biological target: T7, PTP EPSILON (Homo sapiens, UniProt P23469); experiment: PTP IC50 assay, fluorescent substrate DiFMUP; settings: DiFMUP as substrate, 25° C.; read-out: PTP IC50 Epilson
T7 construct: made in house; host or cells: Sf-9 insect cells (pFastBac-G2T); a pGEX 6P-1 construct also existed
T7 sequence (P23469 80-393 limits assumed): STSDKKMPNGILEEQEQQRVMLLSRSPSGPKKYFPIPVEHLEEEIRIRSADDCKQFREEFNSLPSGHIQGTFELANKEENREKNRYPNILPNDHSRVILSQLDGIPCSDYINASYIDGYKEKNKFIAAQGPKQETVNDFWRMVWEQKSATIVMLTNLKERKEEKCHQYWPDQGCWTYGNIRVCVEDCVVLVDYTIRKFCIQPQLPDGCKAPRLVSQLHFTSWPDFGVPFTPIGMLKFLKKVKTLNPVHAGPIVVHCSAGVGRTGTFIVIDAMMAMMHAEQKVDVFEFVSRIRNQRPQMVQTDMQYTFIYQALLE

PTP SHP2 = biological target: T8, PTP SHP2 (Homo sapiens, UniProt Q06124); experiment: PTP IC50 assay, fluorescent substrate DiFMUP; settings: DiFMUP as substrate, 25° C.; read-out: PTP IC50 SHP2
T8 construct: The catalytic domain was amplified using the following oligonucleotides; made in house; host or cells: Sf-9 insect cells (pFastBac-G2T)
T8 sequence (Q06124 247-517 limits assumed): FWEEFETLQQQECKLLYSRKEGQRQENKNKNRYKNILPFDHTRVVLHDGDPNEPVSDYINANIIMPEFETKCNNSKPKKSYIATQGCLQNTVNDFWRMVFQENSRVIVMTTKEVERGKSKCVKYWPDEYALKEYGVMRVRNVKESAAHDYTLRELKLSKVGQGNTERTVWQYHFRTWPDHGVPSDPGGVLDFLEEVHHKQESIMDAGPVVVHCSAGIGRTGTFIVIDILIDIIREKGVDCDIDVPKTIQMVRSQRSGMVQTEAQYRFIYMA

T1 sequence (P28827 831-1186 limits assumed): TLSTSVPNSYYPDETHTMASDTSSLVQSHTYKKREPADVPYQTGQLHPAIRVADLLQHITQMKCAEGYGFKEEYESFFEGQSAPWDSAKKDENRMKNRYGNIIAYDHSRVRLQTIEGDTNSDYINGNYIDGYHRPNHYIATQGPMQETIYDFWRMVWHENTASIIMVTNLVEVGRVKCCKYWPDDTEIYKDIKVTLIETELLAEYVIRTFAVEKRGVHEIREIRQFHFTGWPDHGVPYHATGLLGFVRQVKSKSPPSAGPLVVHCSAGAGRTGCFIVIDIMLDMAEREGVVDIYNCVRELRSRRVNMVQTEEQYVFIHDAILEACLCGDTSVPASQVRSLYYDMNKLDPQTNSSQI

Row | Compound | IC50 (PTP MU) | IC50 (PTP ZETA) | IC50 (PTP ALPHA) | IC50 (PTP PEST) | IC50 (PTP DEP1) | IC50 (PTP 1B) | IC50 (PTP EPSILON) | IC50 (PTP SHP2)
1 | O=S(=O)(c1ccc(SSc2ccc(S(=O)(=O)C(F)(F)F)cc2)cc1)C(F)(F)F [Example 7, Bis (4-trifluoromethylsulfonylphenyl) disulfide] | > 100 µM | > 100 µM | > 100 µM | 22 µM | 41 µM | – | – | –
2 | CCOC(=O)c1cc2cc(N(S(=O)(=O)C(F)(F)F)S(=O)(=O)C(F)(F)F)ccc2n1CC(=O)OC(C)(C)C [Example 99, 1-tert-Butoxycarbonylmethyl-5-(N,N-ditrifluoromethanesulfonyl)amino-1H-indole-2-carboxylic acid ethyl ester] | – | – | – | – | – | 4.8 µM | 27.5 µM | 7 µM
3 | O=C(O)Cn1c(C(=O)O)cc2cc(N(S(=O)(=O)C(F)(F)F)S(=O)(=O)C(F)(F)F)ccc21 [Example 100, 1-Carboxymethyl-5-(N,N-ditrifluoromethanesulfonyl)amino-1H-indole-2-carboxylic acid] | – | – | – | – | – | > 100 µM | > 100 µM | > 20 µM
4 | CCOC(=O)c1cc2cc(NS(=O)(=O)C(F)(F)F)ccc2n1CC1CCCCC1 [Example 101, 1-Cyclohexylmethyl-5-trifluoromethanesulfonylamino-1H-indole-2-carboxylic acid ethyl ester] | – | – | – | – | – | 6.6 µM | 1.4 µM | 3.4 µM
5 | O=C(O)c1cc2cc(NS(=O)(=O)C(F)(F)F)ccc2n1Cc1ccccc1 [Example 102, 1-Benzyl-5-trifluoromethanesulfonylamino-1H-indole-2-carboxylic acid] | – | – | – | – | – | 43.1 µM | 12.2 µM | 4 µM
6 | O=C(O)c1cc2cc(NS(=O)(=O)C(F)(F)F)ccc2n1CC1CCCCC1 [Example 103, 1-Cyclohexylmethyl-5-trifluoromethanesulfonylamino-1H-indole-2-carboxylic acid] | – | – | – | – | – | > 100 µM | 34.7 µM | 17.9 µM
